Patent USRE48461E1, “Modulation of androgen receptor expression” (Ionis Pharmaceuticals, Inc., priority 2012, dated 2021)
Oligonucleotides are written 5' to 3', each unit as a sugar letter and its base; * is a phosphorothioate linkage, no mark a phosphodiester; rarer units and linkages stand in square brackets, end groups in braces. Plain capitals give the bases only. k = constrained ethyl (cEt); d = 2'-deoxy (DNA)

How the values were obtained:
AR mRNA [1] = assay: Antisense inhibition of human AR in HuVEC cells, single concentration (electroporation, qRT-PCR RTS3559); format: cell-based
Outline: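 AR mRNA levels were measured with human primer-probe set RTS3559 and adjusted for total RNA (RIBOGREEN). Cells were HuVEC, with each antisense oligonucleotide delivered by electroporation at one concentration.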

AR mRNA [2] = assay: Dose-dependent antisense inhibition of human AR in HuVEC cells (electroporation, qRT-PCR RTS3559, IC50); format: cell-based; conditions: HuVEC, ~16 h
Outline: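 HuVEC cells dosed with antisense oligonucleotides by electroporation and treated approximately 16 hours. AR mRNA quantified by real-time qPCR with primer probe set RTS3559 and normalised to total RNA by RIBOGREEN; IC50 from dose-response.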

549458 (kG*kT*kT*dG*dA*dT*dT*dT*dA*dA*dT*dG*dG*kT*kT*kG) [compound 549458]
% inhibition (AR mRNA [1]; 250 nM ASO, ~24 h, Table 7): 71% | % inhibition (AR mRNA [1]; 500 nM ASO, electroporation, ~24 h, Table 2): 95% | % inhibition (AR mRNA [1]; 500 nM ASO, ~24 h, Table 5): 94% | % inhibition (AR mRNA [1]; 500 nM ASO, ~24 h, Table 16): 60% | % inhibition (AR mRNA [1]; 500 nM ASO, ~24 h, Table 17): 46% | % inhibition (AR mRNA [1]; 500 nM ASO, ~24 h, Table 18): 48% | % inhibition (AR mRNA [1]; 1,000 nM ASO, ~24 h, Table 13): 87% | % inhibition (AR mRNA [1]; 1,000 nM ASO, ~24 h, Table 26): 79% | % inhibition (AR mRNA [1]; Table 19, 500 nM oligonucleotide, electroporation, approximately 24 hours, relative to untreated control): 50% | % inhibition (AR mRNA [1]; Table 20, 500 nM oligonucleotide, electroporation, approximately 24 hours, relative to untreated control): 54% | % inhibition (AR mRNA [1]; Table 21, 500 nM oligonucleotide, electroporation, approximately 24 hours, relative to untreated control): 47% | % inhibition (AR mRNA [1]; Table 22, 500 nM oligonucleotide, electroporation, approximately 24 hours, relative to untreated control): 39% | % inhibition (AR mRNA [1]; Table 23, 500 nM oligonucleotide, electroporation, approximately 24 hours, relative to untreated control): 51% | % inhibition (AR mRNA [1]; Table 24, 1,000 nM oligonucleotide, electroporation, approximately 24 hours, relative to untreated control): 88% | % inhibition (AR mRNA [1]; Table 25, 1,000 nM oligonucleotide, electroporation, approximately 24 hours, relative to untreated control): 76% | % inhibition (AR mRNA [1]; Table 27, 1,000 nM oligonucleotide, electroporation, approximately 24 hours, relative to untreated control): 76% | % inhibition (AR mRNA [1]; Table 28, 1,000 nM oligonucleotide, electroporation, approximately 24 hours, relative to untreated control): 65% | percent inhibition of AR (AR mRNA [2]; 31.25 nM, Table 6): 15% | percent inhibition of AR (AR mRNA [2]; 31.25 nM, Table 8): 30% | percent inhibition of AR (AR mRNA [2]; 31.25 nM, Table 14): 0% | percent inhibition of AR (AR mRNA [2]; 46.9 nM, Table 15): 15% | percent inhibition of AR (AR mRNA [2]; 55.6 nM, Table 4): 48% | percent inhibition of AR (AR mRNA [2]; 62.5 nM, Table 6): 25% | percent inhibition of AR (AR mRNA [2]; 62.5 nM, Table 8): 36% | percent inhibition of AR (AR mRNA [2]; 62.5 nM, Table 10): 25% | percent inhibition of AR (AR mRNA [2]; 62.5 nM, Table 11): 16% | percent inhibition of AR (AR mRNA [2]; 62.5 nM, Table 12): 19% | percent inhibition of AR (AR mRNA [2]; 62.5 nM, Table 14): 19% | percent inhibition of AR (AR mRNA [2]; 125.0 nM, Table 6): 47% | percent inhibition of AR (AR mRNA [2]; 125.0 nM, Table 8): 54% | percent inhibition of AR (AR mRNA [2]; 125.0 nM, Table 10): 46% | percent inhibition of AR (AR mRNA [2]; 125.0 nM, Table 11): 22% | percent inhibition of AR (AR mRNA [2]; 125.0 nM, Table 12): 22% | percent inhibition of AR (AR mRNA [2]; 125.0 nM, Table 14): 40% | percent inhibition of AR (AR mRNA [2]; 166.7 nM, Table 4): 84% | percent inhibition of AR (AR mRNA [2]; 187.5 nM, Table 15): 50% | percent inhibition of AR (AR mRNA [2]; 500.0 nM, Table 4): 97% | percent inhibition of AR (AR mRNA [2]; 500.0 nM, Table 6): 88% | percent inhibition of AR (AR mRNA [2]; 500.0 nM, Table 8): 85% | percent inhibition of AR (AR mRNA [2]; 500.0 nM, Table 10): 64% | percent inhibition of AR (AR mRNA [2]; 500.0 nM, Table 11): 64% | percent inhibition of AR (AR mRNA [2]; 500.0 nM, Table 12): 38% | percent inhibition of AR (AR mRNA [2]; 500.0 nM, Table 14): 74% | percent inhibition of AR (AR mRNA [2]; 750.0 nM, Table 15): 85% | percent inhibition of AR (AR mRNA [2]; 1000.0 nM, Table 6): 93% | percent inhibition of AR (AR mRNA [2]; 1000.0 nM, Table 8): 90% | percent inhibition of AR (AR mRNA [2]; 1000.0 nM, Table 10): 78% | percent inhibition of AR (AR mRNA [2]; 1000.0 nM, Table 11): 74% | percent inhibition of AR (AR mRNA [2]; 1000.0 nM, Table 12): 71% | percent inhibition of AR (AR mRNA [2]; 1000.0 nM, Table 14): 90% | percent inhibition of AR (AR mRNA [2]; 1500.0 nM, Table 4): 98% | percent inhibition of AR (AR mRNA [2]; 3000.0 nM, Table 15): 96%
